For 43 compounds, IC50 results are on record in patent US20250195483A1, “SPIRO PIPERIDINE DERIVATIVES AS INHIBITORS OF APOL1 AND METHODS OF USING SAME” (Vertex Pharmaceuticals Incorporated, priority 2022, published 2025).

Structures are written as SMILES. pIC50: −log10 of the molar value.

This assay addresses T1, APOL1 (Homo sapiens, UniProt O14791).
T1 sequence (O14791 1-398): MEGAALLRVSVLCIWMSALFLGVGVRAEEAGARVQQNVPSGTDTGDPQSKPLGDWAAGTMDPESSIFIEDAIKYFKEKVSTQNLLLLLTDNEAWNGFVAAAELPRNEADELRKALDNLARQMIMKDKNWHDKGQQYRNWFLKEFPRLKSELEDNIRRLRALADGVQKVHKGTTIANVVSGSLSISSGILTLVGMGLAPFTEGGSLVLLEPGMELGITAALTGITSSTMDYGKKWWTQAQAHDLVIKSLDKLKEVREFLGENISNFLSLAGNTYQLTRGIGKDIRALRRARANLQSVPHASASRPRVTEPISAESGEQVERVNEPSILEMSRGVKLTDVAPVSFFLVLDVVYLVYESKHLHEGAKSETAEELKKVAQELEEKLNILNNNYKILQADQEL
Kind of assay: MultiTox-Fluor Multiplex Cytotoxicity Assay, tet-inducible APOL1 T-REx-HEK293 cells (G0, G1 or G2 clone not specified for Table 20). The assay is classed as cell-based. Conditions: tet-induced, 24 hours with compound, ratio of dead to live cells, read-out: IP50 (i.e., IC50 for cell proliferation). Here is the method: Human embryonic kidney (HEK293) cell lines containing a tet-inducible expression system (T-REx™; Invitrogen, Carlsbad, CA) and Adeno-associated virus site 1 pAAVS1-Puro-APOL1 G0 or pAAVS1-Puro-APOL1 G1 or pAAVS1-Puro-APOL1 G2 Clones G0 DC2.13, G1 DC3.25, and G2 DC4.44 were grown in a T-225 flask at ˜90% confluency in cell growth media (DMEM, 10% Tet-free FBS, 2 mM L-glutamine, 100 Units/mL penicillin-streptomycin, 5 μg/mL blasticidin S HCl, 1 μg/mL puromycin dihydrochloride). Cells were washed with DPBS and then trypsinized to dissociate from the flask. Media was used to quench the trypsin, cells were then pelleted at 200 g and resuspended in fresh cell assay media (DMEM, 2% Tet-free FBS, 2 mM L-glutamine, 100 Units/mL penicillin-streptomycin). Cells were counted and diluted to 1.17×10^6 cells/mL. 20 μL of cells (23,400/well) were dispensed in every well of a 384-well Poly-D-Lysine coated plate using the Multidrop dispenser. The plates were then incubated at room temperature for one hour.
Tetracycline is needed to induce APOL1 expression. 1 mg/mL tet stock in water was diluted to 250 ng/mL (5×) in cell assay media. 60 μL of cell assay media (no tet control) was dispensed in columns 1 and 24, and 60 μL of 5× tet in 384-PP-round bottom plate was dispensed in columns 2 to 23 with the Multidrop dispenser.
Assay ready plates from the Global Compound Archive were ordered using template 384_APOL1Cell_DR10n2_50 uM_v3. Compounds were dispensed at 200 nL in DMSO. The final top concentration was 10 μM with a 10 point 3-fold dilution in duplicate in the MultiTox assay.
20 μL was transferred from the 5× tet plate to the ARP and mixed, then 5 μL of 5× tet and the compounds were transferred to the cell plate and mixed using the Bravo. The cell plate was placed in the humidified 37° C. 5% CO2 incubator for 24 hours.
The MultiTox-Fluor Multiplex Cytotoxicity Assay was performed in accordance with the manufacturer's protocol. After cells were incubated with tet and compound for 24 hours, 25 μL of 1× MultiTox reagent was added to each well using the Multidrop dispenser; the plates were placed on a plate shaker (600 rpm) for 2 minutes, then centrifuged briefly and placed back in the 37° C. incubator for 30 minutes. The cell viability (excitation: 400 nm, emission: 486 nm) and cytotoxicity (excitation: 485 nm, emission: 535 nm) were read using the EnVision plate reader. A ratio of dead (cytotoxicity) to live (viability) cells was reported. Data was exported and analyzed in Genedata. Data was normalized using percent of control, no tet (100% viability), and 50 ng/mL tet treated (0% viability), and fit using Smart Fit settings in Genedata.

With `CC(C)(O)[C@@H](O)Cn1cc(CN2CCC3(CC2)OC(C(N)=O)c2ccc(Cl)cc23)cn1` (stereo partly drawn) [Compound 277, 5-chloro-1′-[[1-[(2S)-2,3-dihydroxy-3-methyl-butyl]pyrazol-4-yl]methyl]spiro[1H-isobenzofuran-3,4′-piperidine]-1-carboxamide], the pIC50 was ≥ 7.30.

For the compound `C[C@H]1C[C@@]2(CCN1Cc1cn(CC3(CO)CC3)nn1)OCCc1ccc(Cl)cc12` [Compound 148], the pIC50 was ≥ 7.30.

Take `Cc1ccc2c(c1)C1(CCN(Cc3ccc(OCC(C)(C)N)nc3)CC1)OC2(C)C` [Compound 288, 2-methyl-1-[[5-[(1,1,5-trimethylspiro[isobenzofuran-3,4′-piperidine]-1′-yl)methyl]-2-pyridyl]oxy]propan-2-amine]: the pIC50 is 6.30 to 7.30.

On to `Cc1nn(CCO)cc1Cn1cc(CN2CC[C@]3(C[C@@H]2C)OCCc2ccc(Cl)cc23)nn1` [Compound 170], for which the pIC50 is ≥ 7.30.

For the compound `Cn1cc(CN2CCC3(CCc4ccc(Cl)cc43)CC2)cn1` [Compound 310, 6-chloro-1′-[(1-methylpyrazol-4-yl)methyl]spiro[indane-1,4′-piperidine]], the pIC50 is ≤ 6.30.

For the compound `CC(CO)(CO)Cn1cc(CN2CCC3(CC2)C(=O)Nc2ccc(Cl)cc23)cn1` [Compound 2], the pIC50 is ≥ 7.30.

Take `CN1C(=O)C2(CCN(Cc3cnn(CCO)c3)CC2)c2cc(Cl)ccc21` [Compound 55]: the pIC50 is ≤ 6.30.

Take `NC(=O)C1OC2(CCN(Cc3ccc(F)c(S(N)(=O)=O)c3)CC2)c2cc(Cl)ccc21` (stereo not shown) [Compound 274]: the pIC50 was ≤ 6.30.

As for `CS(=O)(=O)CCn1cc(CN2CCC3(CC2)C(=O)N(CCO)c2ccc(Cl)cc23)cn1` [Compound 45, 5-chloro-1-(2-hydroxyethyl)-1′-[[1-(2-methylsulfonylethyl)pyrazol-4-yl]methyl]spiro[indoline-3,4′-piperidine]-2-one], the pIC50 is 6.30 to 7.30.

For the compound `NC(=O)C1OC2(CCN(Cc3c[nH]c4nccnc34)CC2)c2cc(Cl)ccc21` (stereo not shown) [Compound 232], the pIC50 is ≥ 7.30.

With `CCc1ccc2c(c1)C1(CCN(Cc3cnn(-c4ccccc4)c3)CC1)OC2C(N)=O` (stereo not shown) [Compound 205, 5-ethyl-1′-[(1-phenylpyrazol-4-yl)methyl]spiro[1H-isobenzofuran-3,4′-piperidine]-1-carboxamide], the pIC50 is ≥ 7.30.

As for `Cc1ccc2c(c1)C1(CCN(Cc3ccccc3)C(C)C1)OCC2` (stereo not shown) [Compound 137], the pIC50 is ≤ 6.30.

As to `CN1C(=O)C2(CCN(Cc3cnn(CCS(C)(=O)=O)c3)CC2)c2cc(Cl)ccc21` [Compound 37, 5-chloro-1-methyl-1′-[[1-(2-methylsulfonylethyl)pyrazol-4-yl]methyl]spiro[indoline-3,4′-piperidine]-2-one], the pIC50 is 6.30 to 7.30.

`CC1(O)CC2(CCN(Cc3cnn(CCS(C)(=O)=O)c3)CC2)c2cc(Cl)ccc21` (stereo not shown) [Compound 303, 5-chloro-1-methyl-1′-[[1-(2-methylsulfonylethyl)pyrazol-4-yl]methyl]spiro[indane-3,4′-piperidine]-1-ol]: the pIC50 is ≤ 6.30.

Take `NC(=O)C1OC2(CCN(Cc3cnn(C4CCS(=O)(=O)C4)c3)CC2)c2cc(Cl)ccc21` (stereo not shown) [Compound 219]: the pIC50 was ≥ 7.30.

As for `CN1C(=O)C2(CCN(Cc3cnn(CCS(N)(=O)=O)c3)CC2)c2ccccc21` [Compound 72, 2-(4-((I-methyl-2-oxospiro[indoline-3,4′-piperidin]-1′-yl)methyl)-1H-pyrazol-1-yl)ethane-1-sulfonamide], the pIC50 was ≤ 6.30.

Regarding `O=C1Nc2ccc(Cl)cc2C12CCN(Cc1cnn(CCO)c1)CC2` [Compound 4], the pIC50 is ≤ 6.30.

On to `Cn1cc(CN2CCC3(CC2)OCCc2ccc(C(F)(F)F)cc23)cn1` [Compound 128], for which the pIC50 is ≤ 6.30.

As for `C[C@H]1C[C@@]2(CCN1Cc1cn(CC3(CC(N)=O)CC3)nn1)OCCc1ccc(Cl)cc12` [Compound 175], the pIC50 was ≥ 7.30.

For `Cc1n[nH]c(C(F)(F)Cn2cc(CN3CC[C@]4(C[C@@H]3C)OCCc3ccc(Cl)cc34)nn2)n1` [Compound 168], the pIC50 was 6.30 to 7.30.

`Cc1ccc2c(c1)C1(CCN(Cc3cnn(C)c3)CC1)SC2` [Compound 304, 5-methyl-1′-[(1-methylpyrazol-4-yl)methyl]spiro[1H-2-benzothiophene-3,4′-piperidine]]: the pIC50 was ≤ 6.30.

Take `CS(=O)(=O)CCn1cc(CN2CCC3(CC2)CC(N2CCNC2=O)c2ccc(Cl)cc23)cn1` (stereo not shown) [Compound 312, 1-[5-chloro-1′-[[1-(2-methylsulfonylethyl)pyrazol-4-yl]methyl]spiro[indane-3,4′-piperidine]-1-yl]imidazolidin-2-one]: the pIC50 is ≤ 6.30.

As to `CNC(=O)C1OC2(CCN(Cc3cnn(-c4cccnc4)c3)CC2)c2cc(Cl)ccc21` (stereo not shown) [Compound 202], the pIC50 was ≥ 7.30.

In the case of `NC(=O)C1OC2(CCN(Cc3cnn(C4CC4)c3N)CC2)c2cc(Cl)ccc21` (stereo not shown) [Compound 257], the pIC50 is 6.30 to 7.30.

As for `CC(C)(C)c1ncc(CN2CCC3(CC2)OC(C(N)=O)c2ccc(Cl)cc23)cn1` (stereo not shown) [Compound 267], the pIC50 was ≤ 6.30.

For the compound `CC(C)n1cc(CN2CCC3(CC2)OC(C(N)=O)c2ccc(Cl)cc23)cn1` (stereo not shown) [Compound 220], the pIC50 is ≤ 6.30.

As for `Cc1ccc2c(c1)C1(CCN(Cc3cnn(CCO)c3)[C@@H](C)C1)OCC2` (stereo partly shown) [Compound 99], the pIC50 is ≤ 6.30.

Regarding `CCNC(=O)NCCn1cc(CN2CC[C@]3(C[C@@H]2C)OCCc2ccc(Cl)cc23)nn1` [Compound 173], the pIC50 was ≥ 7.30.

On to `Cc1ccc2c(c1)[C@@]1(CCN(Cc3cnn(CC(C)(CO)CO)c3)[C@@H](C)C1)OCC2` [Compound 101], for which the pIC50 is 6.30 to 7.30.

Turning to `CC1CN(Cc2cnn(C)c2)CCC12OCCc1ccc(Cl)cc12` (stereo not shown) [Compound 140, 7-chloro-3′-methyl-1′-[(1-methylpyrazol-4-yl)methyl]spiro[isochromane-1,4′-piperidine]], the pIC50 was ≤ 6.30.

Consider `Cc1ccc(CN2CCC3(CC2)OC(C(N)=O)c2ccc(Cl)cc23)cn1` (stereo not shown) [Compound 227], for which the pIC50 is ≥ 7.30.

Consider `C[C@H]1C[C@@]2(CCN1Cc1cn(Cc3ncc(C(N)=O)s3)nn1)OCCc1ccc(Cl)cc12` [Compound 182], for which the pIC50 was ≥ 7.30.

`NC(=O)C1OC2(CCN(Cc3ccc[nH]c3=O)CC2)c2cc(Cl)ccc21` (stereo not shown) [Compound 270]: the pIC50 was ≤ 6.30.

`CS(=O)(=O)CCn1cc(CN2CCC3(CC2)OC(C(N)=O)c2ccc(Cl)cc23)cn1` (stereo not shown) [Compound 214]: the pIC50 is ≥ 7.30.

As to `CN(C)c1ncc(CN2CCC3(CC2)C(=O)Nc2ccc(Cl)cc23)cn1` [Compound 9], the pIC50 is 6.30 to 7.30.

For the compound `O=C1Nc2ccc(CC(F)F)cc2C12CCN(Cc1cn[nH]c1)CC2` [Compound 35], the pIC50 is ≤ 6.30.

As to `COCCN1C(=O)C2(CCN(Cc3cnn(CCS(C)(=O)=O)c3)CC2)c2cc(Cl)ccc21` [Compound 51], the pIC50 is ≤ 6.30.

As for `C[C@H]1C[C@@]2(CCN1Cc1cn(CCCO)nn1)OCCc1ccc(Cl)cc12` [Compound 147], the pIC50 was ≥ 7.30.

In the case of `C[C@H]1C[C@@]2(CCN1Cc1cn(Cc3ccc(C(N)=O)o3)nn1)OCCc1ccc(Cl)cc12` [Compound 172], the pIC50 was ≥ 7.30.

For `Cc1ccc2c(c1)C1(CCN(Cc3cnn(CC(=O)N(C)C)c3)CC1)C(=O)N2` [Compound 25], the pIC50 was ≤ 6.30.

In the case of `CCn1cc(CN2CC[C@]3(C[C@@H]2C)OCCc2ccc(Cl)cc23)nn1` [Compound 154], the pIC50 is 6.30 to 7.30.

With `Cn1cnc(CN2CCC3(CC2)OC(C(N)=O)c2ccc(Cl)cc23)c1` (stereo not shown) [Compound 273], the pIC50 is ≤ 6.30.

Consider `NC(=O)C1OC2(CCN(Cc3c[nH]c4cnccc34)CC2)c2cc(Cl)ccc21` (stereo not shown) [Compound 248], for which the pIC50 was ≥ 7.30.
